Converted amounts (≈) assume the structure as drawn. Where a name gives a salt, the structure may show the parent alone.
What was measured:
Assay type in all cases: cell-based
[1] = test system: Enterobacter cloacae IFO 12937; assay: MIC by agar dilution method (Experiment C), Enterobacter cloacae IFO 12937; details: IFO12937, Trypticase Soy agar, about 10^8 CFU/ml, 37° C. overnight, read-out: Minimal inhibitory concentration (MIC)
Method: (§1) The tables given below set forth the minimal inhibitory concentrations (MIC) of some typical compounds [I]C as obtained in the working examples. The minimal inhibitory concentrations of the tested compounds are determined by the agar dilution method. Namely, 1.0 ml. of aqueous solution of the tested compounds diluted by serial dilutions is poured into test petri dish. Subsequently 9.0 ml. of Trypticase Soy agar is poured into the dish and mixed. On the mixed agar plate, one loopful of bacterial suspension (about 10^8 CFU/ml.) of test microorganism is streaked. After the incubation at 37° C. overnight, the lowest concentration of the tested compounds which cause apparently complete inhibition of growth of the test microorganism is taken to be minimal inhibitory concentration. (1) Enterobacter cloacae IFO 12937

[2] = test system: Klebsiella pneumoniae TN 1711; assay: MIC by agar dilution method (Experiment C), Klebsiella pneumoniae TN 1711; details: TN1711, Trypticase Soy agar, about 10^8 CFU/ml, 37° C. overnight, read-out: Minimal inhibitory concentration (MIC)
Method: as §1, with “(2) Klebsiella pneumoniae TN 1711” for “(1) Enterobacter cloacae IFO 12937”

[3] = test system: Escherichia coli T-7; assay: Antibacterial test (MIC), Escherichia coli T-7; details: Escherichia coli, T7; medium TSA; read-out: Minimum inhibitory concentration (MIC)
From the text: (§2) The following is media and compounds employed in the antibacterial test.
(§3) TSA=Trypticase soy agar [Baltimore Biologicals (U.S.A.)]
(§4) B-TSA=Blood trypticase soy agar

[4] = test system: Escherichia coli 0-111; assay: Antibacterial test (MIC), Escherichia coli 0-111; details: Escherichia coli, 0111; medium TSA; read-out: Minimum inhibitory concentration (MIC)
From the text: as §2, §3, §4

MIC [1] [µg/mL]	MIC [2] [µg/mL]	SMILES	MIC [3] [µg/mL]	MIC [4] [µg/mL]
6.25 (≈ 13.5 µM)	3.13 (≈ 6.74 µM)	CC(C)(O/N=C(\C(=O)N[C@H]1C(=O)N(S(=O)(=O)O)[C@@H]1C(N)=O)c1csc(N)n1)C(=O)O (relative stereo) [Example No. 144C, trans-3-[2-(2-amino-4-thiazolyl)-2-(1-methyl-1-carboxyethyloxyimino)acetamido]-4-carbamoyl-2-oxoazetidine-1-sulfonic acid (syn-isomer)]		
1.56		C=CCO/N=C(\C(=O)N[C@H]1C(=O)N(S(=O)(=O)O)[C@H]1C(=O)OC)c1csc(N)n1 (relative stereo) [Example No. 72C, sodium cis-3-[2-(2-amino-4-thiazolyl)-2-allyloxyiminoacetamido]-4-methoxycarbonyl-2-oxoazetidine-1-sulfonate]		
		CCN1CCN(C(=O)NC(C(=O)NC2CN(S(=O)(=O)O)C2=O)c2csc(N)n2)C(=O)C1=O (centres unmarked) [Compound D, Sodium 3-[2-(4-ethyl-2,3-dioxo-1-piperazinocarboxamido)-2-(2-amino-4-thiazolyl)-acetamido]-2-oxoazetidine-1-sulfonate]	> 100	0.1
3.13 (≈ 6.36 µM)	0.39 (≈ 0.792 µM)	CC(=O)NC[C@H]1[C@@H](NC(=O)/C(=N\OC(C)(C)C(=O)O)c2csc(N)n2)C(=O)N1S(=O)(=O)O (relative stereo) [Example No. 147C, cis-3-[2-(2-amino-4-thiazolyl)-2-(1-methyl-1-carboxyethyloxyimino)acetamido]-4-acetamidomethyl-2-oxoazetidine-1-sulfonic acid (syn-isomer)]		
	6.25	CO/N=C(\C(=O)N[C@H]1C(=O)N(S(=O)(=O)O)[C@H]1COC(N)=O)c1csc(N)n1 (relative stereo) [Example No. 138C, sodium cis-3-[2-(2-amino-4-thiazolyl)-2-methoxyiminoacetamido]-4-carbamoyloxymethyl-2-oxoazetidine-1-sulfonate (syn-isomer)]		
		CCCCCCCCN1CCN(C(=O)N[C@@H](C(=O)NC2CN(S(=O)(=O)O)C2=O)c2ccccc2)C(=O)C1=O (stereo partly drawn) [Compound G, Sodium 3-[D-2-(4-n-octyl-2,3-dioxo-1-piperazinocarboxamido)-2-phenylacetamido]-2-oxoazetidine-1-sulfonate]	> 100	0.78
		CCN1CCN(C(=O)N[C@@H](C(=O)NC2CN(S(=O)(=O)O)C2=O)c2ccccc2)C(=O)C1=O (single isomer, unassigned) [Compound B, Sodium 3-[D(-)-N-(4-ethyl-2,3-dioxo-1-piperazinocarbonyl)-phenylglycinamido]-2-oxoazetidine-1-sulfonate]	> 100	0.2
3.13	0.78	COC(=O)[C@H]1[C@@H](NC(=O)/C(=N\OC(C)(C)C(=O)O)c2csc(N)n2)C(=O)N1S(=O)(=O)O (relative stereo) [Example No. 68C, cis-3-[2-(2-amino-4-thiazolyl)-2-(1-methyl-1-carboxyethyloxyimino)acetamido]-4-methoxycarbonyl-2-oxoazetidine-1-sulfonic acid disodium salt]		
		O=C(NC1CN(S(=O)(=O)O)C1=O)[C@H](NC(=O)N1CCN(N=Cc2cccs2)C1=O)c1ccccc1 (stereo partly drawn) [Compound K, Sodium 3-[D-2-[[2-oxo-3-(thiophen-2-aldoimino)-imidazolidin-1-yl]-carboxamido]-2-phenylacetamido]-2-oxoazetidine-1-sulfonate]	> 100	0.39

SMILES	MIC [1] [µg/mL]	MIC [2] [µg/mL]	MIC [3] [µg/mL]	MIC [4] [µg/mL]
CC(=O)OC[C@H]1[C@@H](NC(=O)/C(=N\OC(C)(C)C(=O)O)c2csc(N)n2)C(=O)N1S(=O)(=O)O (relative stereo) [Example No. 136C, cis-3-[2-(2-amino-4-thiazolyl)-2-(1-methyl-1-carboxyethyloxyimino)acetamido]-4-acetoxymethyl-2-oxoazetidine-1-sulfonic acid disodium salt (syn-isomer)]		1.56		

Source: patent US4822790A, “1-Sulfo-2-oxoazetidine derivatives and their production” (Takeda Chemical Industries, Ltd., priority 1980, dated 1989)
